Here are results for four molecules from article PMC6927813 (Science (New York, N.Y.), 2019).

Where a chain is given by its changes, count along the chain named. Names may count otherwise.

Data set [1] deals with T1, ParBP1 (Punavirus P1, UniProt Q38420).
T1 sequence (Q38420 1-333): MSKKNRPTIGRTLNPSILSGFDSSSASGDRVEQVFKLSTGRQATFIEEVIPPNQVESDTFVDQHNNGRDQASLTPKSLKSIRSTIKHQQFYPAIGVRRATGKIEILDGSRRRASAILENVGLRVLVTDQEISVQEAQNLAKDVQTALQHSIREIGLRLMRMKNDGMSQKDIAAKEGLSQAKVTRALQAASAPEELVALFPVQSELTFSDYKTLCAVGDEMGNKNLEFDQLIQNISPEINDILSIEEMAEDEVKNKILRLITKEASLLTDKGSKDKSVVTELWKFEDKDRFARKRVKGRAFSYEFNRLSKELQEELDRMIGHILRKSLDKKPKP
Briefly: membrane-spotting assay, radiolabelled nucleotide. The data set is classed as binding. The conditions noted are these: labelled compound.

Data set [2] has as its target T2, ParBF (Escherichia coli, UniProt P62558).
T2 sequence (P62558 1-323): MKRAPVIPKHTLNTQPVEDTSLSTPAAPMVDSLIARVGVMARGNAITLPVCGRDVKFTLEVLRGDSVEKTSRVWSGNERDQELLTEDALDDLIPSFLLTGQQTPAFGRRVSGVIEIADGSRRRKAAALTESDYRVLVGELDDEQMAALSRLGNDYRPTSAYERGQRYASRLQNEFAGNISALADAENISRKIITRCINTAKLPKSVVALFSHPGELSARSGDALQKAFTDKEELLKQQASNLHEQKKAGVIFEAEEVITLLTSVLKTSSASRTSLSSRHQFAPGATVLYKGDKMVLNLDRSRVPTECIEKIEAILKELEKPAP
In words: membrane-spotting assay, radiolabelled nucleotide. The data set is classed as binding. The conditions noted are these: labelled compound.

Data set [3] deals with T3, ParBBsu (full-length) (Bacillus subtilis, UniProt P26497).
T3 sequence (P26497 1-282): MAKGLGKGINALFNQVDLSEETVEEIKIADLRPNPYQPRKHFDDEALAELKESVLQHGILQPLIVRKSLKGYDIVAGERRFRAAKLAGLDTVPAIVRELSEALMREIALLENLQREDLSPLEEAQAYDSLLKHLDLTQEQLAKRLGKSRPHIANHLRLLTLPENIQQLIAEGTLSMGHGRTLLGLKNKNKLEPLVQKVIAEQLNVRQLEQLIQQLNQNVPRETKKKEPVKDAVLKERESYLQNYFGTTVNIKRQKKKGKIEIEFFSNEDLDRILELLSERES
In words: isothermal titration calorimetry. It is filed as binding. (In ITC the heat of successive injections is recorded.)

Data set [4] deals with the molecule itself. Briefly: cross-linking.
Data set [5] deals with the molecule itself. Briefly: crystal structure.

One may read the Kd as the concentration at which binding is half-saturated. Read a high Kd as a looser complex. Regarding `Nc1ccn([C@@H]2O[C@H](COP(=O)(O)OP(=O)(O)OP(=O)(O)O)[C@@H](O)[C@H]2O)c(=O)n1` [CTP], the “membrane-spotting assay, radiolabelled nucleotide” value in data set [1] is “plasmid-encoded ParB proteins (F plasmid ParBF and P1 prophage ParBP1)”; in data set [2] it was “CTP was also bound by plasmid-encoded ParB proteins (F plasmid ParBF”. This molecule registered a Kd in data set [3] of 10 to 50 µM.

B1: ParBBsu(T22C) (natural protein)
chain: T3 sequence (P26497 1-282) with T22C
For B1, the binding result in data set [4] is given as “binds”.

B2: ParBBsu(T22C, S278C) (natural protein)
chain: T3 sequence (P26497 1-282) with T22C, S278C
As usually defined, the stoichiometry N is the number of molecules, sites or subunits per partner or assembly. In the case of B2, the “stoichiometry N” value in data set [4] was determined as 2.

B3: ParBBsu(21-218) (domain or fragment)
chain: ETVEEIKIADLRPNPYQPRKHFDDEALAELKESVLQHGILQPLIVRKSLKGYDIVAGERRFRAAKLAGLDTVPAIVRELSEALMREIALLENLQREDLSPLEEAQAYDSLLKHLDLTQEQLAKRLGKSRPHIANHLRLLTLPENIQQLIAEGTLSMGHGRTLLGLKNKNKLEPLVQKVIAEQLNVRQLEQLIQQLNQN
With B3, the binding result in data set [5] is given as “binds”.
